In patent US5270148A, “Processing solution for silver halide color photographic materials and method for processing the materials with the processing solution” (priority 1991, dated 1993):
Where two headings read alike, the source gives them in different places. Blank lines part the entries; values can stand above or below the molecule they belong to.

How the values were obtained:
[1] = Example 3: turbidity of concentrated stabilizing replenisher after passage of time; format: physicochemical; design: key to Turbidity after Passage of Time: E: Neither turbidity nor precipitation.; G: Turbidity occurred very slightly.; M: Slightly precipitation formed at the bottom of the vessel in addition to turbidity.; B: Precipitation layer of 5 mm or more formed on the bottom of the vessel; details: 40° C.
Description: One liter of the concentrated stabilizing replenisher shown below was prepared and filled in a 1.2 liter polyethylene bottle.
After allowing to stand the concentrated solution thus-prepared at 40° C. for 1 month or 6 months, the turbidity of the solution was visually observed.
In addition, the evaluation standards of the turbidity of the solution with the passage of time in Table C are as follows.

[2] = Example 2: fading of the magenta density at intermediate density portion; details: formaldehyde 4.0 mmol, 2 weeks 60° C., 70% RH
Description: The following processing steps were carried out using the following processing solutions and a cine type automatic processor.
According to a sample, fading of the magenta density at the intermediate density portion and the occurrence of yellow stain at the minimum density portion were observed.

human body = details: cited from earlier work
[3] = Example 1: evaluation of image storage stability (magenta fading), stabilizing solution; details: for M Fading: 2 weeks 60° C. 20% RH
Description: In addition, the time for the stabilization step was changed by changing the length of the processing rack.
Thereafter, the sample was allowed to stand for 2 weeks under the conditions of 60° C. 20% RH and then the magenta density was measured again. Thus, magenta fading was evaluated by the reduced magenta density in the density stage that the magenta density after processing was 1.5. (M fading)

[4] = Example 6: image storage stability (magenta fading), image stabilizer in conditioning bath
Description: The same processing steps as in Example 4 were carried out except for changing the conditioning solution and the stabilizing solution as follows.
In this case, the time for the final stabilizing step was one minute and the time for the conditioning step was changed as shown in Table E in the processing.
By using the same method as in Example 1, the image storage stability of the processed film obtained and the vapor pressure of formaldehyde were evaluated.

[5] = acid dissociation constant pKa of secondary amines of formula (II); details: in water at room temperature (about 25° C.)
[6] = Example 4: image storage stability (magenta fading), color reversal material; details: 80° C. for 3 days
Description: Sample 401 prepared was slit in 35 mm width, and after perforated in the same format as films on the market and applying thereto a uniform light exposure, the sample was processed according to the following processing steps using an hanging type automatic processor.
The image storage stability test was carried out under the condition of 80° C. for 3 days. Also, in a bright place, the presence of unevenness of the sample was visually observed.

[7] = oxidation reduction potential of aminopolycarboxylic acid ferric complex salts (bleaching agents); format: physicochemical; details: vs. NHE, pH = 6
From the text: Then, practical examples of the aminopolycarboxylic acid ferric complex salt in this invention are illustrated below together with their oxidation reduction potentials, but the bleaching agents for use in this invention are not limited to these compounds.
The oxidation reduction potential of the bleaching agent is defined as the oxidation reduction potential obtained by the method described in Transactions of the Faraday Society, Vol. 55, (1959), pages 1312-1313.

[8] = water
[9] = 5 mmol/l, stabilization time 10 sec.
[10] = 5 mmol/l, stabilization time 20 sec.
[11] = 5 mmol/l, stabilization time 60 sec.
[12] = 27 mmol/l, stabilization time 10 sec.
[13] = 27 mmol/l, stabilization time 20 sec.
[14] = 27 mmol/l, stabilization time 60 sec.
[15] = 3 mmol/l, time of conditioning bath 40 sec.
[16] = 3 mmol/l, time of conditioning bath 90 sec.
[17] = 3 mmol/l, time of conditioning bath 120 sec.
[18] = 13 mmol/l, time of conditioning bath 40 sec.
[19] = 13 mmol/l, time of conditioning bath 90 sec.
[20] = 13 mmol/l, time of conditioning bath 120 sec.

Molecule: C=O [Formaldehyde, reference compound]
Turbidity after Passage of Time ([1]; 2.0 mol, 1 month): M | Turbidity after Passage of Time ([1]; 2.0 mol, 6 months): M | turbidity / precipitates on storage (in words) ([1]; concentrated stabilizing replenisher, 1 month or 6 months): white floatings precipitates accumulated on the bottom of the vessel | M-Fading ([2]; no formula (I) or (II) additive): 0.15 | allowable concentration in a working environment (human body; Japan Association of Industrial Health): ≤ 0.5 ppm | harm on inhalation (in words) (human body; human body): harmful for the human body | M Fading [3, 9]: 0.20 | M Fading [3, 10]: 0.15 | M Fading [3, 11]: 0.08 | M Fading [3, 12]: 0.03 | M Fading [3, 13]: 0.00 | M Fading [3, 14]: 0.00 | M Fading [4, 15]: 0.11 | M Fading [4, 16]: 0.00 | M Fading [4, 17]: 0.00 | M Fading [4, 18]: 0.03 | M Fading [4, 19]: 0.00 | M Fading [4, 20]: 0.00

Molecule: OCN1CCN(Cn2cncn2)CC1 [Compound A-45]
M Fading [3, 9]: 0.04 | M Fading [3, 10]: 0.01 | M Fading [3, 11]: 0.01 | M Fading [4, 15]: 0.01 | M Fading [4, 16]: 0.01 | M Fading [4, 17]: 0.01

Molecule: c1ncn(CN2CCOCC2)n1 [Compound A-26]
M Fading ([6]; 6 mmol/l): 0.00 | M Fading [3, 9]: 0.03 | M Fading [3, 10]: 0.01 | M Fading [3, 11]: 0.01

Molecule: C1CNCCN1 [II-22]
M-Fading ([2]; formula (II) 2 mmol): 0.03 | M-Fading ([2]; formula (II) 4 mmol): 0.02

Molecule: c1cnn(CN2CCOCC2)c1 [Compound A-16]
M Fading ([6]; 6 mmol/l): 0.05 | M Fading [3, 9]: 0.02 | M Fading [3, 10]: 0.00 | M Fading [3, 11]: 0.00

Molecule: Iminodiacetic Acid Ferric Complex Salt [compound 3]
Oxidation Reduction Potential [7]: 210 mV

Molecule: N-(2-Acetamido)iminodiacetic Acid Ferric Complex Salt [compound 1]
Oxidation Reduction Potential [7]: 180 mV

Molecule: C1N2CN3CN1CN(C2)C3 [Hexamethylenetetramine, reference compound]
M Fading ([6]; 6 mmol/l): 0.29 | M Fading ([6]; 100 mmol/l): 0.10 | M Fading [3, 9]: 0.30 | M Fading [3, 10]: 0.31 | M Fading [3, 11]: 0.30 | M Fading [3, 12]: 0.28 | M Fading [3, 13]: 0.27 | M Fading [3, 14]: 0.28 | fading inhibition effect (in words) ([3]; Table A): the fading inhibition effect is insufficient even when a large amount of the compound is used | M Fading [4, 15]: 0.25 | M Fading [4, 16]: 0.22 | M Fading [4, 17]: 0.10 | M Fading [4, 18]: 0.09 | M Fading [4, 19]: 0.05 | M Fading [4, 20]: 0.02

Molecule: 1,4-Butylenediaminetetraacetic Acid Ferric Salt [compound 4]
Oxidation Reduction Potential [7]: 230 mV

Molecule: Glycol Ether Diaminetetraacetic Acid Ferric Complex Salt [compound 6]
Oxidation Reduction Potential [7]: 240 mV

Molecule: O=C1N(CO)CCN1CO [Dimethylolethyleneurea, reference compound]
Turbidity after Passage of Time ([1]; 0.3 mol, 1 month): M | Turbidity after Passage of Time ([1]; 0.3 mol, 6 months): B (Precipitation layer of 5 mm or more formed on the bottom of the vessel.)

Molecule: c1ncn(CN2CCN(Cn3cncn3)CC2)n1 [Compound A-23]
Turbidity after Passage of Time ([1]; 0.5 mol, 1 month): G | Turbidity after Passage of Time ([1]; 0.5 mol, 6 months): M | M Fading ([6]; 6 mmol/l): 0.00 | M Fading [3, 9]: 0.00 | M Fading [3, 10]: 0.00 | M Fading [3, 11]: 0.00 | M Fading [4, 15]: 0.00 | M Fading [4, 16]: 0.00 | M Fading [4, 17]: 0.00

Molecule: Diethylenetriaminepentaacetic Acid Ferric Complex Salt [compound 9]
Oxidation Reduction Potential [7]: 80 mV

Molecule: OCCN1CCN(Cn2cccn2)CC1 [Compound A-32]
M Fading ([6]; 6 mmol/l): 0.00 | M Fading [4, 15]: 0.01 | M Fading [4, 16]: 0.01 | M Fading [4, 17]: 0.01

Molecule: CNC [II-1]
pKa [5]: 10.9

Molecule: c1cnn(CN2CCCCC2)c1 [Compound A-17]
M Fading [3, 9]: 0.02 | M Fading [3, 10]: 0.01 | M Fading [3, 11]: 0.00

Molecule: Methyliminodiacetic Acid Ferric Complex Salt [compound 2]
Oxidation Reduction Potential [7]: 200 mV

Molecule: C1NCC2CNCC1C2 [II-27]
pKa [5]: 11.3

Molecule: c1nc[nH]n1 [Compound I-4]
M-Fading ([2]; formula (I) 4 mmol): 0.16 | M-Fading ([2]; formula (I) 16 mmol): 0.17

Molecule: 1,3-Propylenediaminetetraacetic Acid Ferric Complex Salt [compound 7]
Oxidation Reduction Potential [7]: 250 mV

Molecule: Cc1ccn(CN(CCO)CCO)n1 [Compound A-11]
M Fading [3, 9]: 0.10 | M Fading [3, 10]: 0.05 | M Fading [3, 11]: 0.00 | M Fading [4, 15]: 0.01 | M Fading [4, 16]: 0.00 | M Fading [4, 17]: 0.00

Molecule: OCCN(CCO)Cn1cccn1 [Compound A-1]
Turbidity after Passage of Time ([1]; 0.5 mol, 1 month): G | Turbidity after Passage of Time ([1]; 0.5 mol, 6 months): M | M Fading ([6]; 6 mmol/l): 0.04

Molecule: C1COCCN1 [II-21]
M-Fading ([2]; formula (II) 4 mmol): 0.04

Molecule: OCCN(CCO)Cn1cncn1 [Compound A-12]
Turbidity after Passage of Time ([1]; 0.5 mol, 1 month): G | Turbidity after Passage of Time ([1]; 0.5 mol, 6 months): M

Molecule: c1cnn(CN2CCN(Cn3cccn3)CC2)c1 [Compound A-22]
Turbidity after Passage of Time ([1]; 0.5 mol, 1 month): G | Turbidity after Passage of Time ([1]; 0.5 mol, 6 months): M | M Fading ([6]; 6 mmol/l): 0.00 | M Fading [3, 9]: 0.01 | M Fading [3, 10]: 0.00 | M Fading [3, 11]: 0.00 | M Fading [4, 15]: 0.01 | M Fading [4, 16]: 0.00 | M Fading [4, 17]: 0.00

Molecule: CCNC[Si](C)(C)C [II-13]
pKa [5]: 11.1

Now from value to molecule:

pKa [5]: 9.9
Molecule: CNCCNC [II-15]

pKa [5]: 9.6
Molecule: CNCCCCO [II-9]

pKa [5]: 8.3
Molecule: CCOC(=O)N1CCNCC1 [II-26]

pKa [5]: 8.0
Molecule: CC(C)NCCC#N [II-11]

pKa [5]: 10.1
Molecule: CCNCCO [II-6]

pKa [5]: 9.7
Molecule: CC1CNC(C)CN1 (stereo not drawn) [II-25]

pKa [5]: 10.6
Molecule: CCNCCCNCC [II-18]

pKa [5]: 10.8
Molecule: CC1CCNCC1 [II-24]

pKa [5]: 8.8
Molecule: CNCC(=O)N(C)C [II-12]

pKa [5]: 10.9
Molecule: CCCCNC [Compound 11-5]

pKa [5]: 8.3
Molecule: CCCCNCCC#N [II-10]

pKa [5]: 10.2
Molecule: CCNCCNCC [II-16]

pKa [5]: 9.8
Molecule: CNCCO [II-8]

pKa [5]: 9.9
Molecule: CCN(CC)CCNC [II-14]

pKa [8]: 9.3
Molecule: C=CCNCC=C [II-3]

pKa [5]: 10.9
Molecule: C1CCCNCC1 [II-23]

pKa [5]: 9.2
Molecule: OCCNCCNCCO [II-17]
